Measurements from the NIST ThermoML archive (doi:10.1016/j.jct.2016.05.021).

Tests used:
[1] = 100 kPa; for speed of sound: Frequency=3 MHz, Sing-around technique in a fixed-path interferometer; for mass density: Vibrating tube method
[2] = refractive index (Na D-line) (dimensionless); conditions: 100 kPa, Standard Abbe refractometry
[3] = xn = mol fraction of the nth substance listed; conditions: 100 kPa, Liquid, x1 = 1; for speed of sound: Frequency=3 MHz, Sing-around technique in a fixed-path interferometer; for mass density: Vibrating tube method
[4] = refractive index (Na D-line) (dimensionless); xn = mol fraction of the nth substance listed; conditions: 100 kPa, Liquid, Standard Abbe refractometry, x1 = 1

O=C1CCCN1 [2-pyrrolidinone]
Metastable liquid
Conditions	mass density, [1] [kg/m3]	refractive index, [2]	speed of sound, [1] [m/s]
298.15 K	1107.16	1.48591	1634.3
303.15 K	1103.07	1.48403	1617.7
308.15 K	1098.99	1.48218	1602.3
313.15 K	1094.9	1.48033	1585.4
318.15 K	1090.82	1.47841	1569.4
323.15 K	1086.75	1.47649	1553.5

CCCC[n+]1ccn(C)c1.O=S(=O)([N-]S(=O)(=O)C(F)(F)F)C(F)(F)F
Liquid
Conditions	mass density, [1] [kg/m3]	refractive index, [2]	speed of sound, [1] [m/s]
298.15 K	1433.72	1.42671	1227.9
303.15 K	1428.95	1.42523	1216.8
308.15 K	1424.18	1.42374	1205.8
313.15 K	1419.41	1.42225	1195
318.15 K	1414.64	1.42076	1184.2
323.15 K	1409.87	1.41923	1173.6

CCCC[n+]1ccn(C)c1.O=S(=O)([N-]S(=O)(=O)C(F)(F)F)C(F)(F)F + O=C1CCCN1
Conditions	mass density, [3] [kg/m3]	refractive index, [4]	speed of sound, [3] [m/s]
298.15 K	1433.72	1.42671	1227.9
303.15 K	1428.95	1.42523	1216.8
308.15 K	1424.18	1.42374	1205.8
313.15 K	1419.41	1.42225	1195
318.15 K	1414.64	1.42076	1184.2
323.15 K	1409.87	1.41923	1173.6
